From PubChem BioAssay (NCI) come the findings set out here.

In this assay the test system is SN12K1 renal. In words: inhibition of tumour cell growth, NCI panel, 48 h.

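Grown in 96-well plates, cells were treated for 48 hours with each compound at five concentrations. Insufficient inhibition: endpoint recorded as highest concentration tested. TGI marks complete inhibition of growth.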

`CC1NC(=O)CC(c2ccccc2)N(N=O)C1c1ccccc1` (configuration not stated) had a TGI of 48.3 µM.
As for `COc1cc(/C=C(\C#N)C(N)=O)cc(Br)c1O`, the TGI was more than 100 µM.
